Values after ≈ are worked out from the molar mass of the structure shown.
Assays:
Format in all cases: cell-based
[1] = tested on: Staphylococcus aureus ATCC 6538P; assay: In vitro agar dilution MIC, organism code AA; details: Table 1B, unit assumed
Method: (§1) Representative compounds of the present invention were assayed in vitro for antibacterial activity as follows: Twelve petri dishes containing successive aqueous dilutions of the test compound mixed with 10 mL of sterilized Brain Heart Infusion (BHI) agar (Difco 0418-01-5) were prepared. Each plate was inoculated with 1:100 (or 1:10 for slow-growing strains, such as Micrococcus and Streptococcus) dilutions of up to 32 different microorganisms, using a Steers replicator block. The inoculated plates were incubated at 35-37° C. for 20 to 24 hours. In addition, a control plate, using BHI agar containing no test compound, was prepared and incubated at the beginning and end of each test.
(§2) An additional plate containing a compound having known susceptibility patterns for the organisms being tested and belonging to the same antibiotic class as the test compound was also prepared and incubated as a further control, as well as to provide test-to-test comparability.
(§3) After incubation, each plate was visually inspected. The minimum inhibitory concentration (MIC) was defined as the lowest concentration of drug yielding no growth, a slight haze, or sparsely isolated colonies on the inoculum spot as compared to the growth control.

[2] = tested on: Staphylococcus aureus A5177; assay: In vitro agar dilution MIC, organism code BB; details: Table 1B, in µg/mL (unit assumed)
Method: as §1, §2, §3

[3] = tested on: Staphylococcus aureus A-5278; assay: In vitro agar dilution MIC, organism code CC; details: Table 1B, unit assumed
Method: as §1, §2, §3

[4] = tested on: Staphylococcus aureus CMX 642A; assay: In vitro agar dilution MIC, organism code DD; details: Table 1B, unit assumed
Method: as §1, §2, §3

[5] = tested on: Staphylococcus aureus NCTC10649M; assay: In vitro agar dilution MIC, organism code EE; details: Table 1B, unit assumed
Method: as §1, §2, §3

[6] = tested on: Staphylococcus aureus CMX 553; assay: In vitro agar dilution MIC, organism code FF; details: Table 1B, unit assumed
Method: as §1, §2, §3

[7] = tested on: Staphylococcus aureus 1775; assay: In vitro agar dilution MIC, organism code GG; details: Table 1B, unit assumed
Method: as §1, §2, §3

[8] = tested on: Staphylococcus epidermidis 3519; assay: In vitro agar dilution MIC, organism code HH; details: Table 1B, in µg/mL (unit assumed)
Method: as §1, §2, §3

[9] = tested on: Enterococcus faecium ATCC 8043; assay: In vitro agar dilution MIC, organism code II; details: Table 1B, unit assumed
Method: as §1, §2, §3

[10] = tested on: Streptococcus bovis A-5169; assay: In vitro agar dilution MIC, organism code JJ; details: Table 1B, unit assumed
Method: as §1, §2, §3

[11] = tested on: Streptococcus agalactiae CMX 508; assay: In vitro agar dilution MIC, organism code KK; details: Table 1B, unit assumed
Method: as §1, §2, §3

[12] = tested on: Streptococcus pyogenes EES61; assay: In vitro agar dilution MIC, organism code LL; details: unit assumed
Method: as §1, §2, §3

[13] = tested on: Streptococcus pyogenes 930; assay: In vitro agar dilution MIC, organism code MM; details: unit assumed
Method: as §1, §2, §3

[14] = tested on: Streptococcus pyogenes PIU 2548; assay: In vitro agar dilution MIC, organism code NN; details: unit assumed
Method: as §1, §2, §3

[15] = tested on: Micrococcus luteus ATCC 9341; assay: In vitro agar dilution MIC, organism code OO; details: Table 1B, unit assumed
Method: as §1, §2, §3

[16] = tested on: Micrococcus luteus ATCC 4698; assay: In vitro agar dilution MIC, organism code PP; details: Table 1B, in µg/mL (unit assumed)
Method: as §1, §2, §3

Escherichia coli JUHL = assay: In vitro agar dilution MIC, organism code QQ; details: Table 1B, in µg/mL (unit assumed)
Method: as §1, §2, §3

Escherichia coli SS = assay: In vitro agar dilution MIC, organism code RR; details: Table 1B, in µg/mL (unit assumed)
Method: as §1, §2, §3

Escherichia coli DC-2 = assay: In vitro agar dilution MIC, organism code SS; details: Table 1B, unit assumed
Method: as §1, §2, §3

Candida albicans CCH 442 = assay: In vitro agar dilution MIC, organism code TT; details: Table 1B, unit assumed
Method: as §1, §2, §3

[17] = tested on: Mycobacterium smegmatis ATCC 114; assay: In vitro agar dilution MIC, organism code UU; details: Table 1B, in µg/mL (unit assumed)
Method: as §1, §2, §3

[18] = tested on: Nocardia asteroides ATCC 9970; assay: In vitro agar dilution MIC, organism code VV; details: Table 1B, in µg/mL (unit assumed)
Method: as §1
as §2, with “comparability. Erythromycin A was used for this purpose.” for “comparability.”
as §3

[19] = tested on: Haemophilis influenzae DILL AMP R; assay: In vitro agar dilution MIC, organism code WW; details: unit assumed
Method: as §1, §2, §3

[20] = tested on: Streptococcus pneumoniae ATCC 6303; assay: In vitro agar dilution MIC, organism code XX; details: unit assumed
Method: as §1, §2, §3

[21] = tested on: Streptococcus pneumoniae GYR 1171; assay: In vitro agar dilution MIC, organism code YY; details: Table 1B, unit assumed
Method: as §1, §2, §3

[22] = tested on: Streptococcus pneumoniae 5979; assay: In vitro agar dilution MIC, organism code ZZ; details: unit assumed
Method: as §1, §2, §3

[23] = tested on: Streptococcus pneumoniae 5649; assay: In vitro agar dilution MIC, organism code ZZA; details: unit assumed
Method: as §1, §2, §3

Row | Structure (SMILES) | MIC [1] [µg/mL] | MIC [2] | MIC [3] [µg/mL] | MIC [4] [µg/mL] | MIC [5] [µg/mL] | MIC [6] [µg/mL] | MIC [7] [µg/mL] | MIC [8] | MIC [9] [µg/mL] | MIC [10] [µg/mL] | MIC [11] [µg/mL] | MIC ([12]; Table 1B) [µg/mL] | MIC ([13]; Table 1B) [µg/mL] | MIC ([14]; Table 1B) [µg/mL] | MIC [15] [µg/mL] | MIC [16] | MIC (Escherichia coli JUHL) | MIC (Escherichia coli SS) | MIC (Escherichia coli DC-2) [µg/mL] | MIC (Candida albicans CCH 442) [µg/mL] | further results
1 | C=CCO[C@]1(C)C[C@@H](C)C(=O)[C@H](C)[C@H]2NC(=O)O[C@]2(C)[C@@H](CC)OC(=O)[C@@](C)(F)C(=O)[C@H](C)[C@H]1O[C@@H]1O[C@H](C)C[C@H](N(C)C)[C@H]1O [Example 4] | 0.78 (≈ 1.19 µM) | 0.78 | > 100 | 0.78 (≈ 1.19 µM) | 0.78 (≈ 1.19 µM) | 0.78 (≈ 1.19 µM) | > 100 | 0.78 | 0.2 (≈ 0.305 µM) | 0.2 (≈ 0.305 µM) | 0.2 (≈ 0.305 µM) | 0.2 (≈ 0.305 µM) | > 100 | 0.39 (≈ 0.594 µM) | 0.39 (≈ 0.594 µM) | 0.78 | > 100 | 0.78 | > 100 | > 100 | MIC [17]: 6.2; MIC [18]: 0.39; MIC ([19]; Table 1B): 8 µg/mL (≈ 12.2 µM); MIC ([20]; Table 1B): 0.06 µg/mL (≈ 0.0914 µM); MIC [21]: 0.03 µg/mL (≈ 0.0457 µM); MIC ([22]; Table 1B): > 128 µg/mL; MIC ([23]; Table 1B): 0.25 µg/mL (≈ 0.381 µM)
2 | CC[C@H]1OC(=O)[C@@](C)(F)C(=O)[C@H](C)[C@@H](O[C@@H]2O[C@H](C)C[C@H](N(C)C)[C@H]2O)[C@](C)(OC/C=C/c2cnc3ccc(C=NN=C(C)C)cc3c2)C[C@@H](C)C(=O)[C@H](C)[C@H]2NC(=O)O[C@@]21C [Example 20] | 0.1 (≈ 0.115 µM) | 0.1 | > 100 | 0.1 (≈ 0.115 µM) | 0.2 (≈ 0.231 µM) | 0.1 (≈ 0.115 µM) | > 100 | 0.2 | 0.1 (≈ 0.115 µM) | 0.01 (≈ 0.0115 µM) | 0.02 (≈ 0.0231 µM) | 0.02 (≈ 0.0231 µM) | 1.56 (≈ 1.8 µM) | 0.2 (≈ 0.231 µM) | 0.02 (≈ 0.0231 µM) | 0.1 | > 100 | 0.78 | > 100 | > 100 | MIC [17]: 0.78; MIC [18]: 0.02; MIC ([19]; Table 1B): 4 µg/mL (≈ 4.62 µM); MIC ([20]; Table 1B): 0.125 µg/mL (≈ 0.144 µM); MIC [21]: 0.06 µg/mL (≈ 0.0693 µM); MIC ([22]; Table 1B): 2 µg/mL (≈ 2.31 µM); MIC ([23]; Table 1B): 1 µg/mL (≈ 1.15 µM)
3 | CC[C@H]1OC(=O)[C@@](C)(F)C(=O)[C@H](C)[C@@H](O[C@@H]2O[C@H](C)C[C@H](N(C)C)[C@H]2O)[C@](C)(OC/C=C/c2ccc3nccnc3c2)C[C@@H](C)C(=O)[C@H](C)[C@H]2NC(=O)O[C@@]21C [Example 12] | 0.05 (≈ 0.0637 µM) | 0.05 | > 100 | 0.05 (≈ 0.0637 µM) | 0.05 (≈ 0.0637 µM) | 0.05 (≈ 0.0637 µM) | > 100 | 0.05 | 0.01 (≈ 0.0127 µM) | ≤ 0.005 | 0.01 (≈ 0.0127 µM) | 0.01 (≈ 0.0127 µM) | 0.2 (≈ 0.255 µM) | 0.05 (≈ 0.0637 µM) | ≤ 0.005 | 0.05 | 12.5 | 0.1 | 12.5 (≈ 15.9 µM) | > 100 | MIC ([12]; Table 1D): ≤ 0.04 µg/mL; MIC ([13]; Table 1D): 0.5 µg/mL (≈ 0.637 µM); MIC ([14]; Table 1D): 0.125 µg/mL (≈ 0.159 µM); MIC [17]: 0.2; MIC [18]: ≤ 0.005; MIC ([19]; Table 1B): 2 µg/mL (≈ 2.55 µM); MIC ([19]; Table 1D): 2 µg/mL (≈ 2.55 µM); MIC ([20]; Table 1B): ≤ 0.004 µg/mL; MIC ([20]; Table 1D): ≤ 0.004 µg/mL; MIC [21]: ≤ 0.004 µg/mL; MIC ([22]; Table 1B): 1 µg/mL (≈ 1.27 µM); MIC ([22]; Table 1D): 1 µg/mL (≈ 1.27 µM); MIC ([23]; Table 1B): 0.125 µg/mL (≈ 0.159 µM); MIC ([23]; Table 1D): 0.125 µg/mL (≈ 0.159 µM)
